Source: patent publication US8686028B2, “Substituted benzfurochromenes and related compounds for the prevention and treatment of bone related disorders” (Council of Scientific & Industrial Research, priority 2008, dated 2014)
“Also recorded” adds a separate entry of the source.

Experiments:
[1] = tested on: Calvarial osteoblast cells; experiment: MTT cell proliferation assay; assay type: cell-based, rat; conditions: 10^−10 M to 10^−6M, 24 hrs
Method: (§1) Neonatal rat calvarial cell cultures are prepared as described previously (Endocrinology 145:3451) using slight modification. Briefly, for primary osteoblast cell cultures, frontal and parietal bones from Sprague-Dawley rat neonates (1-3 day old) are digested in 0.1% collagenase/0.1% dispase in α-MEM to obtain 5 sequential digests. The second through fifth digests are combined and grown to confluence at 37° C. and 5% CO2 in air in α-MEM, supplemented with 10% fetal bovine serum (FBS), 2 mM glutamine, 100 U/ml penicillin-streptomycin, Non-essential amino acid solution and sodium pyruvate.
MTT [3-(4,5-dimethylthiazol-2-yl)-2,5-diphenyltetrazolium bromide] assay, first described by Mosmann in 1983, is based on the ability of a mitochondrial dehydrogenase enzyme from viable cells to cleave the tetrazolium rings of the pale yellow MTT and form a dark blue formazan crystals which is largely impermeable to cell membranes, thus resulting in its accumulation within healthy cells. Solubilisation of the cells by the addition of a detergent results in the liberation of the crystals which are solubilized. The number of surviving cells is directly proportional to the level of the formazan product created. The color can then be quantified using a simple colorimetric assay. The results can be read on a multiwell scanning spectrophotometer (Mosmann T. Rapid colorimetric assay for cellular growth and survival: application to proliferation and cytotoxicity assays. J Immunol Methods. 1983 Dec. 16; 65(1-2):55-63).
Calvarial osteoblast cells plated at a density of 2.0×10^3 cells/200 ul in 96 wells plates. Cells were grown to 60% confluency and then treated with following compounds S006-1709, S006-1710, 5006-1711, S006-1713 and; S006-1714 at concentrations ranging from 10^−10 M to 10^−6M for 24 hrs. After treatment media was removed and 10 mM MTT was added solution in phenol red free DMEM media. After an incubation of 4 hrs the MTT solution was removed. Blue colored crystals were formed which were dissolved in DMSO and absorbance was read on ELISA plate reader at 570 nm wavelength.

Calvarial osteoblasts [2] = experiment: Alkaline phosphatase (ALP) activity for osteoblast differentiation, calvarial osteoblasts; assay type: cell-based, rat; conditions: calvarial osteoblasts, 48 h, 10^−16M to 10^−6M
Method: as §1
70 to 80% confluent Calvarial osteoblasts were treated with μM S006-1709 for 48 h in the presence of ascorbate and glycerophosphate. At the end of incubation period, total ALP activity was measured with a method using p-nitrophenylphosphate (PNPP) as substrate. The reaction mixture contained diethanolamine buffer (1 mol/L, pH 9.8), 0.5 mmol/L MgCl2.6H2O, and 10 mmol/L PNPP. ALP activity was measured by taking OD of the amount of colored product formed by the dephosphorylation of PNPP at 405 nm. […] In addition, the effect of S006-1709 on mineralization of calvarial osteoblasts was studied.
(§2) We then studied its effect in osteoblast differentiation in both calvarial and bone marrow osteoblasts. Confluent calvarial osteoblasts (70 to 80%) were treated with S006-1710 for 48 h in the presence of ascorbate and glycerophosphate at concentrations ranging from 10^−16M to 10^−6M. At the end of incubation period, total ALP activity was measured with the same method used previously using p-nitrophenylphosphate (PNPP) as substrate.
70 to 80% confluent Calvarial osteoblasts were treated with S007-1351 for 48 h in the presence of ascorbate and glycerophosphate. At the end of incubation period, total ALP activity was measured with a method using p-nitrophenylphosphate (PNPP) as substrate. The reaction mixture contained diethanolamine buffer (1 mol/L, pH 9.8), 0.5 mmol/L MgCl2.6H2O, and 10 mmol/L PNPP. ALP activity was measured by taking OD of the amount of colored product formed by the dephosphorylation of PNPP at 405 nm.
70 to 80% confluent calvarial osteoblasts were treated with S007-1352 for 48 h in the presence of ascorbate and glycerophosphate at concentrations ranging from 10^−12M to 10^−6 M. At the end of incubation period, total ALP activity was measured with the same method used previously using p-nitrophenylphosphate (PNPP) as substrate.

Calvarial osteoblasts [3] = experiment: Mineralization of calvarial osteoblasts (Alizarin red extraction); assay type: cell-based, rat; conditions: 10^−12 M and 10^−10 M
bone marrow osteoblasts = experiment: Mineralization of bone marrow osteoblasts (Alizarin red extraction); assay type: cell-based; conditions: 10^−12M and 10^−10 M, 18 d bone marrow culture
Description: In addition, the effect of S006-1709 on mineralization of bone marrow osteoblasts was also studied.
In addition, the effect of S006-1710 on mineralization of bone marrow osteoblasts was also studied.

[4] = tested on: ovariectomized immature female rats; experiment: Estrogenicity, uterine fresh weight in ovariectomized immature female rats; assay type: in vivo, rat; conditions: 10 mg/Kg oral; for Estrogenic Activity, % (second line of cell): relative to vehicle; for Estrogenic Activity (uterine fresh weight): three consecutive days, vehicle 16.46
Method: (§3) 21 day old immature female rats (25-30 grams) were ovariectomized and given 7 days post-operative rest. Thereafter they were treated orally with the test agent (10 mg/Kg body weight) or with vehicle or Ethynyl estradiol, the reference standard for three consecutive days. For anti-estrogenicity, other than the test chemical, ethynyl estradiol (0.01 mg/kg) was given at 15 minutes interval before the test chemical. Autopsy was done 24 h after last treatment and uterine fresh weight was taken.

[5] = tested on: ovariectomized immature female rats; experiment: Anti-estrogenicity, uterine fresh weight with ethynyl estradiol co-treatment; assay type: in vivo, rat; conditions: 10 mg/Kg oral plus ethynyl estradiol 0.01 mg/kg; for Anti-Estrogenic Activity, % (second line of cell): relative to ethynyl estradiol
Method: as §3

[6] = tested on: bone marrow derived osteoblasts; experiment: ALP activity in bone marrow derived osteoblasts; assay type: cell-based; conditions: 10^−16M to 10^−6M
Method: as §2

| SMILES | effect on osteoblast proliferation (MTT) [1] | osteoblast ALP activity vs vehicle control (Calvarial osteoblasts [2]) | mineralization of calvarial osteoblasts (nascent calcium deposition, Alizarin red) (Calvarial osteoblasts [3]) | mineralization of bone marrow osteoblasts (nascent calcium deposition, Alizarin red) (bone marrow osteoblasts) | estrogenicity (in words) [4] | Estrogenic Activity, % (second line of cell) [4] | Estrogenic Activity (uterine fresh weight) [4] | Anti-Estrogenic Activity (uterine fresh weight) [5] | anti-estrogenicity (in words) [5] | Anti-Estrogenic Activity, % (second line of cell) [5] | ALP activity in bone marrow derived osteoblasts [6] | melting point |
| --- | --- | --- | --- | --- | --- | --- | --- | --- | --- | --- | --- | --- |
| COc1ccccc1-c1coc2cc(O)ccc2c1=O [Compound S006-1710, 7-Hydroxy-3-(2-methoxy-phenyl)-chromen-4-one] | no osteoblast proliferating action | significant increase | stimulate mineralization | stimulate mineralization; also recorded: significant increase | estrogenic | 446% | 89.96 | 79.9 | not found to be anti-estrogenic | 19% |  |  |
| O=c1c(-c2ccccc2O)coc2cc(O)ccc12 [Compound S006-1711, 7-Hydroxy-3-(2-hydroxy-phenyl)-chromen-4-one] | did not have any effect | stimulated ALP activity | stimulated mineralization | stimulated mineralization | estrogenic | 192% | 48.13 | 85.16 | not found to be anti-estrogenic | 13% | stimulated ALP activity | 196 to 198 °C |
